Reference: patent US20230117470A1, “SUBSTITUTED PYRAZOLE COMPOUNDS AS TOLL RECEPTOR INHIBITORS” (BRISTOL-MYERS SQUIBB COMPANY, priority 2019, published 2023)

How the values were obtained:
Type in all cases: cell-based
human TLR9 = target: T1, human TLR9 (Homo sapiens, UniProt Q9NR96); assay: TLR9 inhibition reporter assay (HEK-Blue cells, SEAP reporter, ODN2006 stimulation); details: HEK-Blue cells overexpressing human TLR9, SEAP reporter, ODN2006 5 nM
T1 construct: host or cells: HEK-Blue cells
T1 sequence (Q9NR96 26-1032): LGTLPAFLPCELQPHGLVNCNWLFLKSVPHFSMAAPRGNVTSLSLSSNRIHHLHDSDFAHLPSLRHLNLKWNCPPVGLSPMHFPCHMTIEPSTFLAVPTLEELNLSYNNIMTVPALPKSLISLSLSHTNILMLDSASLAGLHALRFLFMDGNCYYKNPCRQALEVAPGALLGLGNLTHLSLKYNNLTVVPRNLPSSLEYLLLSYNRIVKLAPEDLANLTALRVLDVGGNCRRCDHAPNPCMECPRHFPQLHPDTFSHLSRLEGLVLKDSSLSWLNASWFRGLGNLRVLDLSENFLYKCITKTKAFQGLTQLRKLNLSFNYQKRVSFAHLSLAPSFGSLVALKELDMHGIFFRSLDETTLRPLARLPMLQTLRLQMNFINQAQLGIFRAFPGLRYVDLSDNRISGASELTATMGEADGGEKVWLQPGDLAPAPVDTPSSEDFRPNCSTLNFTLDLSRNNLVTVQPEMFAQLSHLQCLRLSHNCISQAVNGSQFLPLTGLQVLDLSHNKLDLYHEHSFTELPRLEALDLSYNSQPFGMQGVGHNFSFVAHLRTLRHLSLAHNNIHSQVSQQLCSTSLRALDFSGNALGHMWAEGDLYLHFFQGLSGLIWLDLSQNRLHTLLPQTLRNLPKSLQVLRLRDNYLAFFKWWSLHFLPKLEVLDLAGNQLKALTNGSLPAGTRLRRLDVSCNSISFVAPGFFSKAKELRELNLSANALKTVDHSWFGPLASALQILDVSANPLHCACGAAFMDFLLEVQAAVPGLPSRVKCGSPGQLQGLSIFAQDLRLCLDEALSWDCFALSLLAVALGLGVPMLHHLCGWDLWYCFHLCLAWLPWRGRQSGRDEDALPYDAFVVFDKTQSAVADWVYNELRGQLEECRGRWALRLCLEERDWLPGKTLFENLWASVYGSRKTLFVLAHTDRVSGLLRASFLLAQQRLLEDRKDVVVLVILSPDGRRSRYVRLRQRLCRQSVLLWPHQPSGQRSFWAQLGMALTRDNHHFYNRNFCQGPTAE
Method in brief: (§1)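 30 min RT cpd pre-incubation (0.05 nM–50 μM final dose response) → agonist: gardiquimod 7.5 μM / R848 15.9 μM / ODN2006 5 nM for TLR7/8/9 resp. → 22 h, 37° C → SEAP via detection medium. % inhibition vs agonist+DMSO and reference inhibitor controls.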

human TLR7 = target: T2, human TLR7 (Homo sapiens, UniProt Q9NYK1); assay: TLR7 inhibition reporter assay (HEK-Blue cells, SEAP reporter, gardiquimod stimulation); details: HEK-Blue cells overexpressing human TLR7, SEAP reporter, gardiquimod 7.5 μM
T2 construct: host or cells: HEK-Blue cells
T2 sequence (Q9NYK1 27-1049): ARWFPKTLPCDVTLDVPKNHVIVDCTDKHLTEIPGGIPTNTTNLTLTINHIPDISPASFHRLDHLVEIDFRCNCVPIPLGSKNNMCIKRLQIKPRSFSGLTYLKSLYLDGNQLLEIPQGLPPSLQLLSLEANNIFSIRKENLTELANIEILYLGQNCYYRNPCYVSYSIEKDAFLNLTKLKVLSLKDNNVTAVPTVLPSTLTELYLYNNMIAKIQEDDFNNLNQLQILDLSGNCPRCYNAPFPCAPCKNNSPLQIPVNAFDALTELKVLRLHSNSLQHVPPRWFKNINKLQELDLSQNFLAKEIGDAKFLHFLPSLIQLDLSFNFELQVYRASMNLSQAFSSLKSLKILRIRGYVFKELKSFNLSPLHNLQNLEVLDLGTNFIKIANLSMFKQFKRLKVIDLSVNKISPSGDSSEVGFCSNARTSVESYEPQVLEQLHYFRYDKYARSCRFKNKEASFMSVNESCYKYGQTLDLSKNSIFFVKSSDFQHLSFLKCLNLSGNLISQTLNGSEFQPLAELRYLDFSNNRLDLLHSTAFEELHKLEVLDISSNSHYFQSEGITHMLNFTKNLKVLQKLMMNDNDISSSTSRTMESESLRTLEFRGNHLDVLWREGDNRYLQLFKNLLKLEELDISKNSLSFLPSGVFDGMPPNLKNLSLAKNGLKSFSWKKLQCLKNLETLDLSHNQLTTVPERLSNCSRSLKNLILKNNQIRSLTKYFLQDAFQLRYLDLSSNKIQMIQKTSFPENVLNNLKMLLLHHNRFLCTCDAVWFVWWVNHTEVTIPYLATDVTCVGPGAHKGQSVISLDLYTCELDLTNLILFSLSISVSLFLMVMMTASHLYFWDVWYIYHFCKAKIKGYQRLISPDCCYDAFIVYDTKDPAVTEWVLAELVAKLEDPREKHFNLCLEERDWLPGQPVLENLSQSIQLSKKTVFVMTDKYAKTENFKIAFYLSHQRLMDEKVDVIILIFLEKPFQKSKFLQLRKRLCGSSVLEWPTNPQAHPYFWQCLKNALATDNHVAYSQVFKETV
Method in brief: as §1

human TLR8 = target: T3, human TLR8 (Homo sapiens, UniProt Q9NR97); assay: TLR8 inhibition reporter assay (HEK-Blue cells, SEAP reporter, R848 stimulation); details: HEK-Blue cells overexpressing human TLR8, SEAP reporter, R848 15.9 μM
T3 construct: host or cells: HEK-Blue cells
T3 sequence (Q9NR97 27-1041): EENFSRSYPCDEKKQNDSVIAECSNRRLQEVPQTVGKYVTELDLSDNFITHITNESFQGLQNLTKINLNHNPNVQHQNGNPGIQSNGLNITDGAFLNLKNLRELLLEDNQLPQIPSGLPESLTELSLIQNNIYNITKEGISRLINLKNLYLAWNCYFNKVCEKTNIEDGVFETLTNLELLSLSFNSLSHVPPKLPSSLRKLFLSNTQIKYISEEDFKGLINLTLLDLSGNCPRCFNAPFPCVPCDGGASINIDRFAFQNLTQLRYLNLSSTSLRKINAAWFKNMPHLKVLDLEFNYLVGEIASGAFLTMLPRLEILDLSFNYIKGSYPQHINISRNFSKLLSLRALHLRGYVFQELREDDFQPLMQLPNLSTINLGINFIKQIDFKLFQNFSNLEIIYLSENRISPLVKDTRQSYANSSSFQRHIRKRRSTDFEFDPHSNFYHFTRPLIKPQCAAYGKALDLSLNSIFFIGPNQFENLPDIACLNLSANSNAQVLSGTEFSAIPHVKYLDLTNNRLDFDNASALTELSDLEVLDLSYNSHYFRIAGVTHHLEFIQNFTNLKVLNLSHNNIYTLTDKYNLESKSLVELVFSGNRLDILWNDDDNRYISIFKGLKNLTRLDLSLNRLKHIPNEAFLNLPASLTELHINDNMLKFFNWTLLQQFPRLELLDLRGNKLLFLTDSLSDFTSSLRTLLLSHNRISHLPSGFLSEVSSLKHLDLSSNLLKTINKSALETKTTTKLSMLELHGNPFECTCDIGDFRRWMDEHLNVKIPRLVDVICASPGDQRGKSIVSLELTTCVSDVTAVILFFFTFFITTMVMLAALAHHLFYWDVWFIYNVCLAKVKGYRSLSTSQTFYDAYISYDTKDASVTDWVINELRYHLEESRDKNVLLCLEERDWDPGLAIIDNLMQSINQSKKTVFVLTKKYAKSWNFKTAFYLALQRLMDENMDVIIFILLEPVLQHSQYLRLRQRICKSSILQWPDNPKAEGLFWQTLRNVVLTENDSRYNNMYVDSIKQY
Method in brief: as §1

IC50 (human TLR9) | IC50 (human TLR7) | IC50 (human TLR8) | Structure (SMILES)
8.86 µM | 2.18 nM | 1.46 nM | Cc1cc(-c2[nH]nc(-c3cnc(N)nc3)c2C(C)C)cn2ncnc12 [Example 228]
19.7 µM | 5.19 nM | 0.97 nM | Cc1cc(-c2[nH]nc(C3CCC(NC4CCN(C(C)C)CC4)CC3)c2C(C)C)cn2ncnc12 (single isomer, unassigned) [Example 289]
23 µM | 4.7 nM | 3.01 nM | Cc1cc(-c2[nH]nc(-c3nc4c(s3)CN(C3COC3)CC4)c2C(C)C)cn2ncnc12 [Example 253]
> 50 µM | 137 nM | 365 nM | COc1cc(-c2[nH]nc(-c3cnc(C4CCN(CCF)CC4)cn3)c2C(C)C)cn2ncnc12 [Example 398]
29.2 µM | 13.3 nM | 0.54 nM | Cc1cc(-c2[nH]nc(C3CCC(N4CCN(C)CC4)CC3)c2C(C)C)cn2ncnc12 (single isomer, unassigned) [Example 287]
5.4 µM | 5.8 nM | 25.9 nM | Cc1cc(-c2[nH]nc(C(=O)NC3CCN(C(C)C(C)C)CC3)c2C(C)C)cn2ncnc12 (stereo not drawn) [Example 125]
8.88 µM | 10.7 nM | 2.49 nM | Cc1cc(-c2[nH]nc(-c3ncc(C4CCN(C(C)C(C)C)CC4)cn3)c2C(C)C)cn2ncnc12 (stereo not drawn) [Example 372]
0.793 µM | 43.4 nM | 12.5 nM | Cc1cc(-c2[nH]nc(C(=O)N(C)CCCN(C)C)c2C(C)C)cn2ncnc12 [Example 24]
18.8 µM | 12.9 nM | 12.8 nM | COc1cc(-c2[nH]nc(-c3ccc(C4CN(C)C4)cc3)c2C(C)C)cn2ncnc12 [Example 328]
38.1 µM | 13.5 nM | 39.7 nM | Cc1cc(-c2[nH]nc(-c3ccc(C4CN(CC(C)(C)O)C4)cc3)c2C(C)C)cn2ncnc12 [Example 336, 1-(3-(4-(4-isopropyl-5-(8-methyl-[1,2,4]triazolo[1,5-a]pyridin-6-yl)-1H-pyrazol-3-yl)phenyl)azetidin-1-yl)-2-methylpropan-2-ol]
5.49 µM | 4.87 nM | 0.29 nM | Cc1cc(-c2[nH]nc(-c3ccc(N(C)C)nc3)c2C(C)C)cn2ncnc12 [Example 237]
> 50 µM | 108 nM | 98.5 nM | Cc1cc(-c2[nH]nc(C(=O)N[C@H]3CC[C@H](NCC4(C)COC4)CC3)c2C(C)C)cn2ncnc12 [Example 149]
41.5 µM | 11.7 nM | 9.33 nM | COc1cc(-c2[nH]nc(-c3ccc(C4CCN(CC5CC5)CC4)cn3)c2C(C)C)cn2ncnc12 [Example 374]
> 50 µM | 1120 nM | > 3130 nM | Cc1cc(-c2[nH]nc(-c3ccc(C4CCN(C)CC4)nc3)c2C(C)C)cn2ncnc12 [Example 359]
5.66 µM | 9.92 nM | 36 nM | CCc1c(C(=O)NC2CCN(C)CC2)n[nH]c1-c1cc(C)c2ncnn2c1 [Example 181, 4-ethyl-5-(8-methyl-[1,2,4]triazolo[1,5-a]pyridin-6-yl)-N-(1-methylpiperidin-4-yl)-1H-pyrazole-3-carboxamide]
> 50 µM | 15.1 nM | 59.8 nM | COc1cc(-c2[nH]nc(-c3ccc4c(c3)CCNC4)c2C(C)C)cn2ncnc12 [Example 234]
> 50 µM | 39.5 nM | 20.1 nM | COc1cc(-c2[nH]nc(-c3cnc(C4CCN(C(C)C)CC4)cn3)c2C(C)C)cn2ncnc12 [Example 384]
> 50 µM | 2.54 nM | 5.22 nM | Cc1cc(-c2[nH]nc(C(=O)NC3CCNCC3)c2C(C)C)cn2ncnc12 [Example 43, 4-isopropyl-5-(8-methyl-[1,2,4]triazolo[1,5-a]pyridin-6-yl)-N-(piperidin-4-yl)-1H-pyrazole-3-carboxamide]
6.26 µM | > 3130 nM | > 3130 nM | CCN1CCC(c2ccc(-c3n[nH]c(-c4cc(C)c5ncnn5c4)c3C(C)C)nc2)CC1 [Example 366]
4.16 µM | > 3130 nM | > 3130 nM | COc1cc(-c2[nH]nc(C(=O)N(C)C3CCN(C)CC3)c2C(C)C)cn2ncnc12 [Example 9]
14.3 µM | 8.95 nM | 31 nM | Cc1cc(-c2[nH]nc(C(=O)NC3CCN(Cc4ncn(C)n4)CC3)c2C(C)C)cn2ncnc12 [Example 158]
5.49 µM | 2.42 nM | 41.9 nM | Cc1cc(-c2[nH]nc(C(=O)N[C@H]3CC[C@@H](NC4CCOC(C)(C)C4)CC3)c2C(C)C)cn2ncnc12 (stereo partly drawn) [Example 97]
25.3 µM | 44 nM | 17.5 nM | Cc1cc(-c2[nH]nc(-c3ccc(NC(C)C)cc3)c2C(C)C)cn2ncnc12 [Example 244]
> 50 µM | 47.4 nM | 168 nM | Cc1cc(-c2[nH]nc(-c3ccc(N4CCN(CC(C)(C)C)CC4)cc3)c2C(C)C)cn2ncnc12 [Example 408]
